The values below are quoted from earlier work in patent US20250152568A1, “METHODS OF TREATING COMPLEX REGIONAL PAIN SYNDROME” (Aisa Pharma, Inc., priority 2022, published 2025).

This data set addresses Nav 1.7 sodium channel (Homo sapiens, UniProt Q15858). The note with it: 20 mg dose of cilnidipine vs 1800 mg dose of gabapentin; see WO2021/178903.

Nav 1.7 sodium channel, sequence (Q15858 whole entry): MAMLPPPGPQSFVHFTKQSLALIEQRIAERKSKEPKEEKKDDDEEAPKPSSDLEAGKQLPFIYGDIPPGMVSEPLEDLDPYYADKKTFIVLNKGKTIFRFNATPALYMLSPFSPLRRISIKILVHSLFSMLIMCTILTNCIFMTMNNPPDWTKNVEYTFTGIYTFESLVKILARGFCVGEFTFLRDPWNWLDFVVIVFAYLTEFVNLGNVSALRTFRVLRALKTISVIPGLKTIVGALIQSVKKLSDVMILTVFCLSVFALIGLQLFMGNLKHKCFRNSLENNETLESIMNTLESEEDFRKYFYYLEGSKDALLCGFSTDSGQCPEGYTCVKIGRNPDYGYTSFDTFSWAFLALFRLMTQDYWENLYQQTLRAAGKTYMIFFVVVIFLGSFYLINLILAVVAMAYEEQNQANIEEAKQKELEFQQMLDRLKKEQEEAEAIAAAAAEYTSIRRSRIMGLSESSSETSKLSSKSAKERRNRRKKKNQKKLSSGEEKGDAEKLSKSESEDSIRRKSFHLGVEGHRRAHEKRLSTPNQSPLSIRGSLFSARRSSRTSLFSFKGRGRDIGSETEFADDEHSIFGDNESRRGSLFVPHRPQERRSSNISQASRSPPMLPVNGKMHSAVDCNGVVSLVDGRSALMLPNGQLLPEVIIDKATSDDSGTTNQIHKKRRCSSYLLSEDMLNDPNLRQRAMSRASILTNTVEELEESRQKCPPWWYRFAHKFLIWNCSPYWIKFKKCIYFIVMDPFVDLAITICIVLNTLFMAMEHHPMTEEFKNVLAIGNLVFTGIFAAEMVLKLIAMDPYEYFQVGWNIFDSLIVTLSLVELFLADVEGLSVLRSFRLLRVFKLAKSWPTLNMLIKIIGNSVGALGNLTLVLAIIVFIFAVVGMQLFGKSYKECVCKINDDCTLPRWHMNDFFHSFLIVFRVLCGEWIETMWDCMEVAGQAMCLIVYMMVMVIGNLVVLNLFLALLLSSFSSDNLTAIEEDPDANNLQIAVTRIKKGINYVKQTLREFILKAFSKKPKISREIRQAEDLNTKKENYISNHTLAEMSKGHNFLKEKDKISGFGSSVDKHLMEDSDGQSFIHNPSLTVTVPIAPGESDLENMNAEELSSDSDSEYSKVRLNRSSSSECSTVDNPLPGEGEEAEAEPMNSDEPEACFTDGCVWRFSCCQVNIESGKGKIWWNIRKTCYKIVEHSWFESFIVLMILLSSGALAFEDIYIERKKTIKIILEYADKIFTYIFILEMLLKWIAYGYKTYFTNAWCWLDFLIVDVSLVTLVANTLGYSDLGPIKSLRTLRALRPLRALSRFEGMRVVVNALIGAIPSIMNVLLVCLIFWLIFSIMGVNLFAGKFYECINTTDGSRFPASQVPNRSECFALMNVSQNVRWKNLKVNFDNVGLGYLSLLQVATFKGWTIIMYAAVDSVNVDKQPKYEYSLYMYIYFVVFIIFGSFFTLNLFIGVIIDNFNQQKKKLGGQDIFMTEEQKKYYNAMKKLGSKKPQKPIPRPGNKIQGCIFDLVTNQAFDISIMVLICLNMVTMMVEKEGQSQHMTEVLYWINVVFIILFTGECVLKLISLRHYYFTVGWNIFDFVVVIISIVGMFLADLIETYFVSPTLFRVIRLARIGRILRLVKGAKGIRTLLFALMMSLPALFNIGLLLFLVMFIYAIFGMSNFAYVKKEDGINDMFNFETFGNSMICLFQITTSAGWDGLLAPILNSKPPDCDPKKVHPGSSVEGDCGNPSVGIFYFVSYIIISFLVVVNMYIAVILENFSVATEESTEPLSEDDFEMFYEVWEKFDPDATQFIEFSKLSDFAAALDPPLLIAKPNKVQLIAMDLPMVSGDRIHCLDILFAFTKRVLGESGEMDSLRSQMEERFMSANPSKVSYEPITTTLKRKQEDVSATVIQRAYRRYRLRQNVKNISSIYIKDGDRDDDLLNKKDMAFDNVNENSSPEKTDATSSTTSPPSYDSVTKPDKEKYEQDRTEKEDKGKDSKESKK

Consider `COCCOC(=O)C1=C(C)NC(C)=C(C(=O)OC/C=C/c2ccccc2)C1c1cccc([N+](=O)[O-])c1` (stereo not shown) [cilnidipine], for which the “inhibition of Nav 1.7 compared to an 1800 mg dose of gabapentin” value is on record as greater than 6 fold.
